Source: US9067949B2, “Benzofuro[3,2-c] pyridines and related analogs as serotonin sub-type 6 (5-HT6) modulators for the treatment of obesity, metabolic syndrome, cognition and schizophrenia” (Albany Molecular Research, Inc., priority 2011, dated 2015)
Where two headings read alike, the source gives them in different places.

Tests used:
[1] = target: T1, human 5-HT6 receptor (Homo sapiens (Human), UniProt P50406); test: 5-HT6 radioligand binding assay (SPA format, [N-methyl-3H]-LSD)
Outline: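 Human 5-HT6 receptor membranes were incubated overnight at room temperature with 10 nM [N-methyl-3H]-LSD and competitor in 50 mM Tris-HCl pH 7.5, 5 mM MgCl2, 1 mM EDTA, 4% DMSO, read by SPA. Nonspecific binding was defined with 100 μM 5-HT. IC50 came from ten-point duplicate curves; Ki via Cheng-Prusoff.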

[2] = target: T1, human 5-HT6 receptor; test: Cell-based functional assay measuring cAMP production (HTRF); details: for Emax: agonist mode, relative to 10 μM 5-HT Emax control, read-out: Emax (agonism); for functional activity at the human 5HT6 receptor: cell based assay
Experimental: Compounds were further diluted to 4× assay concentrations with serum free media containing IBMX. […] Cells were lysed by addition of HTRFTM reagents (CisBio International) and after another 30 minute incubation, the plates were read on an AnalystGT (MDS) or SynergyHT (BioTek) microplate reader. […] Antagonist activity was expressed as the ratio of cAMP produced in a test well to the average cAMP produced in the EC80 challenge control wells. Agonist activity was determined after a full 30 minutes of incubation at room temperature, using 10 μM 5-HT as the Emax control. Cells were lysed by addition of HTRFTM reagents (CisBio International) and after another 30 minute incubation, the plates were read on an AnalystGT (MDS) or SynergyHT (BioTek) microplate reader. […] Agonist activity was expressed as the ratio of cAMP produced in a test well to the average cAMP produced in the Emax control wells. All cell-based experiments were performed in duplicate using ten concentrations of test compound with 5-HT (agonist mode) or a known antagonist (antagonist mode) included as additional controls in every run. […] For antagonists, the apparent dissociation constant (Kb) was calculated using a modified Cheng-Prusoff equation: Kb=IC50/([…][…])), where A=concentration of reference agonist in the assay and E[…]=EC50 value of the reference agonist.

[3] = human 5-HT6 receptor membranes, 10 nM [N-methyl-3H]-LSD, Ki by Cheng-Prusoff, read-out: human 5HT6 Ki

T1 sequence (P50406 whole entry): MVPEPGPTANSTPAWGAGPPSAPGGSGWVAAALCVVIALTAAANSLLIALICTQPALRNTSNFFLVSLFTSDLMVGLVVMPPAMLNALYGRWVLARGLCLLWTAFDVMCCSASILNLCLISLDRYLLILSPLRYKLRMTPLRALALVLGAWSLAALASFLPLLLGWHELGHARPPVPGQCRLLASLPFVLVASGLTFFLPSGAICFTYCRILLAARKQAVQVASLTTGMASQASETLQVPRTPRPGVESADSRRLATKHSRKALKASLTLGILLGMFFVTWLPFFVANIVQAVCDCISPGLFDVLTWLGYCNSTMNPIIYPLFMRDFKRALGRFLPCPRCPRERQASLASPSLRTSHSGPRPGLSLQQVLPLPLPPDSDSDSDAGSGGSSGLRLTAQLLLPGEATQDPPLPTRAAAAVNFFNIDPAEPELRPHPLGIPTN

## Cl.O=S(=O)(c1ccc(OC(F)(F)F)cc1)c1cc(Cl)c2oc3c(c2c1)CNCC3 [Example 112]
[1]; [3]
  Ki: 4.9 nM
[2]
  Emax: 19%
  functional activity at the human 5HT6 receptor: weak partial agonists

## Cl.O=S(=O)(c1ccccc1)c1cc(Cl)c2oc3c(c2c1)CNCC3 [Example 44, 6-Chloro-8-(phenylsulfonyl)-1,2,3,4-tetrahydrobenzofuro[3,2-c]pyridine hydrochloride]
[1]; [3]
  Ki: 0.55 nM
other
  melting point: 290 to 294 °C

## Cl.O=S(=O)(c1cccc(Cl)c1)c1ccc2c3c(oc2c1)CC1CCC3N1 (stereo not shown) [Example 65, 3-(3-Chlorophenyl)sulfonyl-6,7,8,9,10-pentahydro-7,10-epiminocyclohepta[b]benzofuran hydrochloride]
[1]; [3]
  Ki: 154 nM
other
  melting point: 193 to 197 °C

## Cl.O=S(=O)(c1ccccc1)c1cc(F)c2oc3c(c2c1)CNCC3 [Example 52, 6-Fluoro-8-(phenylsulfonyl)-1,2,3,4-tetrahydrobenzofuro[3,2-c]pyridine hydrochloride]
[1]; [3]
  Ki: 5.1 nM
other
  melting point: 232 to 250 °C

## Cl.N#Cc1ccc(S(=O)(=O)c2ccc3oc4c(c3c2)CNCC4)cc1 [Example 34, 8-(4-Cyanophenylsulfonyl)-1,2,3,4-tetrahydrobenzofuro[3,2-c]pyridine hydrochloride]
[1]
  Ki: 1320 nM
other
  melting point: 295 to 301 °C (dec.)

## CC1Cc2oc3c(Cl)cc(S(=O)(=O)c4ccccc4)cc3c2CN1.Cl (single isomer, unassigned; (-)) [Example 83a, (−) 6-chloro-3-methyl-8-(phenylsulfonyl)-1,2,3,4-tetrahydrobenzofuro[3,2-c]pyridine hydrochloride]
[1]; human 5-HT6 receptor membranes, 10 nM [N-methyl-3H]-LSD, Ki by Cheng-Prusoff, hydrochloride, read-out: human 5HT6 Ki
  Ki: 25 nM
other
  melting point: 293 °C (dec.)

## Cc1ccc(S(=O)(=O)c2ccc3oc4c(c3c2)CNCC4)cc1.Cl [Example 35, 8-(4-Methylphenylsulfonyl)-1,2,3,4-tetrahydrobenzofuro[3,2-c]pyridine hydrochloride]
[1]; [3]
  Ki: 38 nM
other
  melting point: 265 to 270 °C

## COc1ccc(S(=O)(=O)c2ccc3oc4c(c3c2)CNCC4)cc1.Cl [Example 33, 8-(4-Methoxyphenylsulfonyl)-1,2,3,4-tetrahydrobenzofuro[3,2-c]pyridine hydrochloride]
[1]; [3]
  Ki: 100 nM
other
  melting point: 270 to 272 °C

## Cl.O=S(=O)(c1cccc(F)c1)c1ccc2oc3c(c2c1)C1CCC(C3)N1 (stereo not shown) [Example 57, 2-(3-Fluorophenyl)sulfonyl-6,7,8,9,10-pentahydro-7,10-epiminocyclohepta[b]benzofuran hydrochloride]
[1]; [3]
  Ki: 133 nM
other
  melting point: 200 to 210 °C

## Cl.O=S(=O)(c1ccc(C(F)(F)F)cc1)c1cc(Cl)c2oc3c(c2c1)CNCC3 [Example 111]
[1]; [3]
  Ki: 3.3 nM
[2]
  Emax: 27%
  functional activity at the human 5HT6 receptor: weak partial agonists

## Cl.Nc1ccc(S(=O)(=O)c2ccc3oc4c(c3c2)CNCC4)cc1 [Example 36, 8-(4-Aminophenylsulfonyl)-1,2,3,4-tetrahydrobenzofuro[3,2-c]pyridine hydrochloride]
[1]; [3]
  Ki: 40 nM
other
  melting point: 305 to 314 °C (dec.)

## CN1CCc2oc3cc(S(=O)(=O)c4ccccc4)ccc3c2C1.Cl [Example 61, 2-Methyl-7-(phenylsulfonyl)-1,2,3,4-tetrahydrobenzofuro[3,2-c]pyridine hydrochloride]
[1]; [3]
  Ki: 18 nM
other
  melting point: 242 to 245 °C

## Cl.Clc1cc(Sc2ccccc2)cc2c3c(oc12)CCNC3 [Example 91, 6-chloro-8-(phenylthio)-1,2,3,4-tetrahydrobenzofuro[3,2-c]pyridine hydrochloride]
[1]; [3]
  Ki: 12 nM
other
  melting point: 241 to 248 °C (dec.)

## Cl.O=S(=O)(c1cccc(C(F)(F)F)c1)c1ccc2c3c(oc2c1)CCNC3 [Example 63, 7-(3-Trifluoromethylphenylsulfonyl)-1,2,3,4-tetrahydrobenzofuro[3,2-c]pyridine hydrochloride]
[1]; [3]
  Ki: 2.1 nM
other
  melting point: 290 to 294 °C

## O=S(=O)(c1ccccc1)c1cc(Cl)c2oc3c(c2c1)CC(O)CC3 (single isomer, unassigned; (+)) [Example 99, (+)-6-chloro-8-(phenylsulfonyl)-1,2,3,4-tetrahydrodibenzo[b,d]furan-2-ol]
[1]; [3]
  Ki: 1 nM
other
  melting point: 238 to 242 °C

## Cl.O=S(=O)(c1ccc2oc3c(c2c1)C1CCC(C3)N1)n1ccc2ccc(F)cc21 (stereo not shown) [Example 59, 2-(6-Fluoro-1H-indol-1-yl)sulfonyl-6,7,8,9,10-pentahydro-7,10-epiminocyclohepta[b]benzofuran hydrochloride]
[1]; [3]
  Ki: 17 nM
other
  melting point: 184 to 187 °C

## Cl.O=S(=O)(c1ccccc1)c1ccc2oc3c(c2c1)CNCCC3 [Example 69, 9-(Phenylsulfonyl)-2,3,4,5-tetrahydro-1H-benzofuro[3,2-c]azepine hydrochloride]
[1]; [3]
  Ki: 571 nM
other
  melting point: 211 to 216 °C

## Cl.O=S(=O)(c1ccccc1)c1cc(Cn2cccn2)c2oc3c(c2c1)CNCC3 [Example 75, 6-((1H-pyrazol-1-yl)methyl)-8-(phenylsulfonyl)-1,2,3,4-tetrahydrobenzofuro[3,2-c]pyridine hydrochloride]
[1]; [3]
  Ki: 124 nM
other
  melting point: 145 to 148 °C

## Cl.O=S(=O)(c1ccc2oc3c(c2c1)CNCC3)n1ccc2ccccc21 [Example 41, 8-(1H-Indol-1-ylsulfonyl)-1,2,3,4-tetrahydrobenzofuro[3,2-c]pyridine hydrochloride]
[1]; [3]
  Ki: 0.58 nM
other
  melting point: 283 to 286 °C

## Cl.O=S(=O)(c1cccc(C(F)(F)F)c1)c1ccc2oc3c(c2c1)C1CCC(C3)N1 (stereo not shown) [Example 55, 2-(3-Trifluoromethylphenyl)sulfonyl-6,7,8,9,10-pentahydro-7,10-epiminocyclohepta[b]benzofuran hydrochloride]
[1]; [3]
  Ki: 53 nM
other
  melting point: 296 to 298 °C

## Cl.O=S(=O)(c1cccc(C(F)(F)F)c1)c1ccc2c3c(oc2c1)CC1CCC3N1 (stereo not shown) [Example 64, 3-(3-Trifluoromethylphenyl)sulfonyl-6,7,8,9,10-pentahydro-7,10-epiminocyclohepta[b]benzofuran hydrochloride]
[1]; [3]
  Ki: 116 nM
other
  melting point: 178 to 183 °C

## Cl.O=S(=O)(c1ccc(Cl)cc1)c1ccc2oc3c(c2c1)CNCC3 [Example 32, 8-(4-Chlorophenylsulfonyl)-1,2,3,4-tetrahydrobenzofuro[3,2-c]pyridine hydrochloride]
[1]; [3]
  Ki: 38 nM
other
  melting point: 302 to 305 °C

## Cl.O=S(=O)(c1ccccc1)c1ccc2c3c(oc2c1)CCCNC3 [Example 68, 8-(Phenylsulfonyl)-2,3,4,5-tetrahydro-1H-benzofuro[3,2-c]azepine hydrochloride]
[1]; [3]
  Ki: 132 nM
other
  melting point: 221 to 225 °C

## COc1cc(S(=O)(=O)c2ccccc2)cc2c3c(oc12)CCNC3.Cl [Example 54, 6-Methoxy-8-(phenylsulfonyl)-1,2,3,4-tetrahydrobenzofuro[3,2-c]pyridine hydrochloride]
[1]; [3]
  Ki: 0.12 nM
other
  melting point: 197 to 202 °C

## Cl.O=S(=O)(c1cc(Cl)cc(Cl)c1)c1ccc2oc3c(c2c1)CNCC3 [Example 38, 8-(3,5-Dichlorophenylsulfonyl)-1,2,3,4-tetrahydrobenzofuro[3,2-c]pyridine hydrochloride]
[1]; [3]
  Ki: 17 nM
other
  melting point: 312 to 315 °C

## Cl.O=S(=O)(c1ccc2ccccc2c1)c1ccc2oc3c(c2c1)CNCC3 [Example 40, 8-(2-Naphthylsulfonyl)-1,2,3,4-tetrahydrobenzofuro[3,2-c]pyridine hydrochloride]
[1]; [3]
  Ki: 21 nM
other
  melting point: 267 to 270 °C

## Cl.O=S(=O)(c1cccc(F)c1)c1ccc2oc3c(c2c1)CNCC3 [Example 29, 8-(3-Fluorophenylsulfonyl)-1,2,3,4-tetrahydrobenzofuro[3,2-c]pyridine hydrochloride]
[1]; [3]
  Ki: 16 nM
other
  melting point: 262 to 272 °C (dec.)

## CC1(C)NCCc2oc3c(Cl)cc(S(=O)(=O)c4ccccc4)cc3c21.Cl [Example 84, 6-chloro-1,1-dimethyl-8-(phenylsulfonyl)-1,2,3,4-tetrahydrobenzofuro[3,2-c]pyridine hydrochloride]
[1]; [3]
  Ki: 27 nM
other
  melting point: 282 to 287 °C (dec.)
